Laboratory results: US20230109833A1, “METABOLICALLY STABLE N-ACYLAMINOOXADIAZOLES USEFUL AS ANTIBACTERIAL AGENTS” (MICROBIOTIX, INC., priority 2017, published 2023)

Key:
Type in all cases: binding
Muscarinic M3 = Muscarinic M3 (Homo sapiens, UniProt P20309); details: 10 μM compound, Hit Profile Panel
Adenosine A1 = target: T1, Adenosine A1 (Homo sapiens, UniProt P30542); details: 10 μM compound, Hit Profile Panel
T1 sequence (P30542 1-326): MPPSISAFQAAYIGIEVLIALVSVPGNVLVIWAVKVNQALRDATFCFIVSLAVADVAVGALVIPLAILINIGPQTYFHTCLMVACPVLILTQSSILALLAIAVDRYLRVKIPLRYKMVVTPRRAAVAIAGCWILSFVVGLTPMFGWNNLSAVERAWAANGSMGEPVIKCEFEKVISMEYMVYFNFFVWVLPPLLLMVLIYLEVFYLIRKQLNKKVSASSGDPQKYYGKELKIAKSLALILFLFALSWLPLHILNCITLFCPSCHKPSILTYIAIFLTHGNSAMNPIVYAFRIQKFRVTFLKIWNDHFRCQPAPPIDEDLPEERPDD

[1] = system: Glutamate, NMDA, Phencyclidine; details: rat; 10 μM compound; Hit Profile Panel
Dopamine D1 = Dopamine D1 (Homo sapiens, UniProt P21728); details: 10 μM compound, Hit Profile Panel
Sequence of Dopamine D1 (P21728 whole entry): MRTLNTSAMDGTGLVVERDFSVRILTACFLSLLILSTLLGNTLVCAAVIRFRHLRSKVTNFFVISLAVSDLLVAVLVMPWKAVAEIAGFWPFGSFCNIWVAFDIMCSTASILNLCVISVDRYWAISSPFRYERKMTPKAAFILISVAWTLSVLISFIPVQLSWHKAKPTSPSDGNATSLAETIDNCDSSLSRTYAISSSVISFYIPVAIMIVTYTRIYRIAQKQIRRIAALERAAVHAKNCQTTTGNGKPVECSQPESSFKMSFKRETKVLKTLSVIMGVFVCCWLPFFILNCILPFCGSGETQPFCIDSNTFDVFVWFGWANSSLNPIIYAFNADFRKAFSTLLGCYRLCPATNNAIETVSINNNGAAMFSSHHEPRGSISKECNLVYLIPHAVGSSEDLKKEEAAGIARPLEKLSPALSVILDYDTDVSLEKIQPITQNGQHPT

[2] = system: Calcium Channel L-type, Dihydropyridine; details: rat; 10 μM compound; Hit Profile Panel
Muscarinic M2 = target: T2, Muscarinic M2 (Homo sapiens, UniProt P08172); details: 10 μM compound, Hit Profile Panel
T2 sequence (P08172 1-466): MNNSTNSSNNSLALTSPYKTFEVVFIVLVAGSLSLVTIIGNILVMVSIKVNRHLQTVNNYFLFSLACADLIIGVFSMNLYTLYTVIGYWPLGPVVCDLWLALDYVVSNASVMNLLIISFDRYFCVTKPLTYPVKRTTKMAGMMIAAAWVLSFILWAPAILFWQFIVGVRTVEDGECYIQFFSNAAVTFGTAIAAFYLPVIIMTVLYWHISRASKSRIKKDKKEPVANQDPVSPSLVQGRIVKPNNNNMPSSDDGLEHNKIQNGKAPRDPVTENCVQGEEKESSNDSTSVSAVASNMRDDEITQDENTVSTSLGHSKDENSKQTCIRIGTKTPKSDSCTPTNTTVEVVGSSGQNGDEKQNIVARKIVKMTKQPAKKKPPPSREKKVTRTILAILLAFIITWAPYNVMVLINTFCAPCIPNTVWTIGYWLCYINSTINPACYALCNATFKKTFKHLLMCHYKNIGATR

Cannabinoid CB1 = Cannabinoid CB1 (Homo sapiens, UniProt P21554); details: 10 μM compound, Hit Profile Panel
Sequence of Cannabinoid CB1 (P21554 whole entry): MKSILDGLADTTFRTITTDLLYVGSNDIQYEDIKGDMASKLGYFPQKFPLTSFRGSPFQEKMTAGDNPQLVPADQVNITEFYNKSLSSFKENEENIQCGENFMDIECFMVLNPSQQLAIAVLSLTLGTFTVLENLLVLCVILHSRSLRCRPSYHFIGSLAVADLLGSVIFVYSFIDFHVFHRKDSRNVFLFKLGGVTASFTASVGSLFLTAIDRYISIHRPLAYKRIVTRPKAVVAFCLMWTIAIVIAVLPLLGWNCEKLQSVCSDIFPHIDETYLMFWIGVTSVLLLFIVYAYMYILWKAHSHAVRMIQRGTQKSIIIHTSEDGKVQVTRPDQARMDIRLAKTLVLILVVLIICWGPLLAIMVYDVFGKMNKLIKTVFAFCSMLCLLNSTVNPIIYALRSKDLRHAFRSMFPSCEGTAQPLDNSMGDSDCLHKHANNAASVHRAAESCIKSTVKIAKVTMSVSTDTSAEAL

Nicotinic Acetylcholine = details: human; 10 μM compound; Hit Profile Panel
Histamine, H1 = Histamine, H1 (Homo sapiens, UniProt P35367); details: 10 μM compound, Hit Profile Panel
Sequence of Histamine, H1 (P35367 whole entry): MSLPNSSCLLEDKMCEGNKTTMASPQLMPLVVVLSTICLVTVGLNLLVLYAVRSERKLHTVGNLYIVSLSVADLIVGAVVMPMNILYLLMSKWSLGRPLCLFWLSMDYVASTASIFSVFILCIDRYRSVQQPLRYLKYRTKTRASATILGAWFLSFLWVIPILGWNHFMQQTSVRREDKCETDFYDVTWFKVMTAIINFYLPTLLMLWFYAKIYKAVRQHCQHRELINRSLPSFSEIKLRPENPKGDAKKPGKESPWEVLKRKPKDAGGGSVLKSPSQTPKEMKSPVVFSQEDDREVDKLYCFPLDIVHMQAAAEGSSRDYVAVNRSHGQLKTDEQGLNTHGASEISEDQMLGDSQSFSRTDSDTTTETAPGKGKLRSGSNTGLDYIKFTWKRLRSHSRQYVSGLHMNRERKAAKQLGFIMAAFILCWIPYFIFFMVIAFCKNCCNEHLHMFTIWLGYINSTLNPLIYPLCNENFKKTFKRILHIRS

Potassium Channel (KATP) = Potassium Channel (KATP) (Cricetus cricetus, UniProt Q09427); details: hamster; 10 μM compound; Hit Profile Panel
Sequence of Potassium Channel (KATP) (Q09427 whole entry): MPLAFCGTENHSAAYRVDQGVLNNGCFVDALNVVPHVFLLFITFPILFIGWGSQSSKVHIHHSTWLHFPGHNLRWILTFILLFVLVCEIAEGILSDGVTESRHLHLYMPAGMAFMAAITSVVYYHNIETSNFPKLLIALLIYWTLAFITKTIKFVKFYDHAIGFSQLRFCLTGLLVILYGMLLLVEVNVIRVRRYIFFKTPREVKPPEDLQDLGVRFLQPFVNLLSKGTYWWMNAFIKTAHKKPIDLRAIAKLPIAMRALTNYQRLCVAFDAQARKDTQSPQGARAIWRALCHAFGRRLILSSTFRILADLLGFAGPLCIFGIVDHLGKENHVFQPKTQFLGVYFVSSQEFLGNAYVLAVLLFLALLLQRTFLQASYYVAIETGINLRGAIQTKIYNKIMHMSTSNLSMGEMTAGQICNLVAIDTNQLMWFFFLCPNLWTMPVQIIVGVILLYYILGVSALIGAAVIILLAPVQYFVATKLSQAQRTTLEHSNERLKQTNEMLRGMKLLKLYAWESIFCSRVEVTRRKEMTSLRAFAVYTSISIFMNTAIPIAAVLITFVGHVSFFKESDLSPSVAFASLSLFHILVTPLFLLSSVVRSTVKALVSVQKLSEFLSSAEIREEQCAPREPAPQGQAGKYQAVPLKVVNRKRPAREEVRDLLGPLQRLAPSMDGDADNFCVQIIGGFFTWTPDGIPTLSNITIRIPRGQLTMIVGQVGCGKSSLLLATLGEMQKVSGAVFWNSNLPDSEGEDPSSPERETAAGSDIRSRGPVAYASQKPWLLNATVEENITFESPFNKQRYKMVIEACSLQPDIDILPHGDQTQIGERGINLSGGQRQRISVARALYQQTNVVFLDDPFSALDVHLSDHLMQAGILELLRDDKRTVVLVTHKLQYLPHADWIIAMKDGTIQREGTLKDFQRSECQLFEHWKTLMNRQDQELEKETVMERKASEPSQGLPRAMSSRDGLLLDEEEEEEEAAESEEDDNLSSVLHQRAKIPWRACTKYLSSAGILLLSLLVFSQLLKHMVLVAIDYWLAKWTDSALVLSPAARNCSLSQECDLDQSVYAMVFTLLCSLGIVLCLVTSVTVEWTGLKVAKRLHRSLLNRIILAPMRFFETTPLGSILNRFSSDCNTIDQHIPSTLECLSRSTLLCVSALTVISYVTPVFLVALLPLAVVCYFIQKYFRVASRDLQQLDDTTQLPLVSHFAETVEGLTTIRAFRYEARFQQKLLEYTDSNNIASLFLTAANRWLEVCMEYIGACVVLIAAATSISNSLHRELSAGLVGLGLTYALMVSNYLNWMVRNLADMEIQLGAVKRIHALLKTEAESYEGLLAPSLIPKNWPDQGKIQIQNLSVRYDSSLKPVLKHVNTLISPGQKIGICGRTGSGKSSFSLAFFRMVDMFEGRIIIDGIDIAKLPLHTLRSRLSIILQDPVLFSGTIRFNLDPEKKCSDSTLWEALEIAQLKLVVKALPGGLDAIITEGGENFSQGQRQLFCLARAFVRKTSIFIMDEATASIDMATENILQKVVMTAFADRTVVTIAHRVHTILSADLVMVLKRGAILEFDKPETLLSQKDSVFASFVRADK

GABAA, Muscimol, Central = details: rat; 10 μM compound; Hit Profile Panel
Rolipram = details: rat; 10 μM compound; Hit Profile Panel
Adrenergic α2A = target: T3, Adrenergic α2A (Homo sapiens, UniProt P08913); details: 10 μM compound, Hit Profile Panel
T3 sequence (P08913 1-465): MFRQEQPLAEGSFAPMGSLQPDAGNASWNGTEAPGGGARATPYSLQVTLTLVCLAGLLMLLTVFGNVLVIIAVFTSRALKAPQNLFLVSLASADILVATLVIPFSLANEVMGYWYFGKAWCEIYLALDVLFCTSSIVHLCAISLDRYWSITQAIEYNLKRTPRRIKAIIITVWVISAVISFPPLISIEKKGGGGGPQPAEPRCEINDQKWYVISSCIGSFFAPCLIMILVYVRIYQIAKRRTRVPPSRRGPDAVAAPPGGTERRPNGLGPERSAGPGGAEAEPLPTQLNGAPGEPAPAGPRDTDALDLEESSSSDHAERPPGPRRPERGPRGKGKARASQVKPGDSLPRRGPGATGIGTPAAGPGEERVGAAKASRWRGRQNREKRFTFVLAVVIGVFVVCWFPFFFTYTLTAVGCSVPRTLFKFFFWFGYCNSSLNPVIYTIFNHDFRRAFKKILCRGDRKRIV

Adrenergic α1A = target: T4, Adrenergic α1A (Rattus norvegicus, UniProt P43140); details: 10 μM compound, Hit Profile Panel
T4 sequence (P43140 1-466): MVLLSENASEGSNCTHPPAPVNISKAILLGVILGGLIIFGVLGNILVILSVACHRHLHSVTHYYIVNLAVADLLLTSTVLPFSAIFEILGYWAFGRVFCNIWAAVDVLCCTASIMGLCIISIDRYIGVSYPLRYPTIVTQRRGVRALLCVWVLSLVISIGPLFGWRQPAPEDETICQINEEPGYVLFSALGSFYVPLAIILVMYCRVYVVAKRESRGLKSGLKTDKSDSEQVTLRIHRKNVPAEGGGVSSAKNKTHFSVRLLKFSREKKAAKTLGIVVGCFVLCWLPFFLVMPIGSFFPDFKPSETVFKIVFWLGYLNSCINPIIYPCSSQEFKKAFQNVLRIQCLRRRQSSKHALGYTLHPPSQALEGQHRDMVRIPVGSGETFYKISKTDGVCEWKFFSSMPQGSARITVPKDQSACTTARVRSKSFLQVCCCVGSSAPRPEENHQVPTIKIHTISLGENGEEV

Adrenergic β1 = Adrenergic β1 (Homo sapiens, UniProt P08588); details: 10 μM compound, Hit Profile Panel
Sequence of Adrenergic β1 (P08588 whole entry): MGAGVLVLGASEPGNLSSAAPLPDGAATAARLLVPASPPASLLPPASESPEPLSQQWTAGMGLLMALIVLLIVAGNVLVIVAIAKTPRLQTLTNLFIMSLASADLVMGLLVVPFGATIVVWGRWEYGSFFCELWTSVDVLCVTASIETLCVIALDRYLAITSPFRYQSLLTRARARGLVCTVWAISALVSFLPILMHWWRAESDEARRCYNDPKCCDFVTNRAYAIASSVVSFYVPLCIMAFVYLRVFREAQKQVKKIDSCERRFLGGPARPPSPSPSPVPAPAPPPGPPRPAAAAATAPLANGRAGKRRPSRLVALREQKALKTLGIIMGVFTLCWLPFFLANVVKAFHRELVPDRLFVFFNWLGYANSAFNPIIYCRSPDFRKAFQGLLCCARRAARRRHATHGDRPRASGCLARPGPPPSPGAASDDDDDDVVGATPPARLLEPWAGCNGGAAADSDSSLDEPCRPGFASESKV

Phorbol Ester = details: mouse; 10 μM compound; Hit Profile Panel
[3] = system: GABAA, Flunitrazepam, Central; details: rat; 10 μM compound; Hit Profile Panel
[4] = target: Nicotinic Acetylcholine a1, Bungarotoxin (Homo sapiens, UniProt P02708+P07510+Q07001); details: for inhibition at 10 µM: read-out: % Inhibition, Nicotinic Acetylcholine a1, Bungarotoxin
Prostanoid EP4 = Prostanoid EP4 (Homo sapiens, UniProt P35408); details: 10 μM compound, Hit Profile Panel
Sequence of Prostanoid EP4 (P35408 whole entry): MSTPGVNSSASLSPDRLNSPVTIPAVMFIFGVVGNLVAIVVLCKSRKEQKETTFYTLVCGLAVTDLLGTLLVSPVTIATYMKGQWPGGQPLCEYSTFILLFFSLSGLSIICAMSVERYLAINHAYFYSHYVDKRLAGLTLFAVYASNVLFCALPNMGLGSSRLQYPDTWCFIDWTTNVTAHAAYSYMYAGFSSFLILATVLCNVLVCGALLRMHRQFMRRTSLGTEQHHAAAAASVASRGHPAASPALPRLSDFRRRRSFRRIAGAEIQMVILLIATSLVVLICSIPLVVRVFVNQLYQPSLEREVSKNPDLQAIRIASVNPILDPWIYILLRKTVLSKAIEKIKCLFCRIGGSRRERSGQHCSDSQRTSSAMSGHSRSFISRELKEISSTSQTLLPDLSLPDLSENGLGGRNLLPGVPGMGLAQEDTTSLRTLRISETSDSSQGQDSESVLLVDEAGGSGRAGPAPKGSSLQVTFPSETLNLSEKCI

Sequence of Muscarinic M3 (P20309 whole entry): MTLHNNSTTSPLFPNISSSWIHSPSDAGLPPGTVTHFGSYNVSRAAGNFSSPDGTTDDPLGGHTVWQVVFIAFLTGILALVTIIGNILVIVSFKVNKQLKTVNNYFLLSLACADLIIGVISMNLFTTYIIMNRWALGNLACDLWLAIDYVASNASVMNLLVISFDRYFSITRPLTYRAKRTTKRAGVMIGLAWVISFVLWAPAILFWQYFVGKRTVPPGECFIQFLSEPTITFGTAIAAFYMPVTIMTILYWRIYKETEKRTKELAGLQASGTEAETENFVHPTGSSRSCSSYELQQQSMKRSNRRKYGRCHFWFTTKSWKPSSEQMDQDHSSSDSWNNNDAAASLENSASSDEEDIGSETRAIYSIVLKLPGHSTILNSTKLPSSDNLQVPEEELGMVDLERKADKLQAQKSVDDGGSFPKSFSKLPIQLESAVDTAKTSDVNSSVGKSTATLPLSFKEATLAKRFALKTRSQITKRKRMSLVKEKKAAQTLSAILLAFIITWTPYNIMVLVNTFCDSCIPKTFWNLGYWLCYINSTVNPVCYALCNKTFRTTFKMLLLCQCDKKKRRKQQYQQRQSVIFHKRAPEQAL

Structure (SMILES) | % Inhibition, Glutamate, NMDA, Phencyclidine [1] [%] | % Inhibition, Calcium Channel L-type, Dihydropyridine [2] [%] | % Inhibition, Nicotinic Acetylcholine (Nicotinic Acetylcholine) [%] | % Inhibition, GABAA, Muscimol, Central (GABAA, Muscimol, Central) [%] | % Inhibition, Rolipram (Rolipram) [%] | % Inhibition, Phorbol Ester (Phorbol Ester) [%] | % Inhibition, GABAA, Flunitrazepam, Central [3] [%] | inhibition at 10 µM (Muscarinic M3) [%] | inhibition at 10 µM (Adenosine A1) [%] | inhibition at 10 µM (Dopamine D1) [%] | inhibition at 10 µM (Muscarinic M2) [%] | inhibition at 10 µM (Cannabinoid CB1) [%] | inhibition at 10 µM (Histamine, H1) [%] | inhibition at 10 µM (Potassium Channel (KATP)) [%] | inhibition at 10 µM (Adrenergic α2A) [%] | inhibition at 10 µM (Adrenergic α1A) [%] | inhibition at 10 µM (Adrenergic β1) [%] | inhibition at 10 µM [4] [%] | inhibition at 10 µM (Prostanoid EP4) [%] | also measured
O=C(Nc1nnc(-c2ccc(F)cc2)o1)N1CCc2ccccc2C1 [MBX-4132] | −3 | 15 | −8 | 1 | 2 | 4 | 13 | – | – | – | – | – | – | – | – | – | – | – | – | % Inhibition, Muscarinic M3 (Muscarinic M3): 16%; % Inhibition, Adenosine A1 (Adenosine A1): 48%; % Inhibition, Dopamine D1 (Dopamine D1): −8%; % Inhibition, Muscarinic M2 (Muscarinic M2): 13%; % Inhibition, Cannabinoid CB1 (Cannabinoid CB1): 14%; % Inhibition, Histamine, H1 (Histamine, H1): 17%; % Inhibition, Potassium Channel (KATP) (Potassium Channel (KATP)): 10%; % Inhibition, Adrenergic α2A (Adrenergic α2A): 54%; % Inhibition, Adrenergic α1A (Adrenergic α1A): 24%; % Inhibition, Adrenergic β1 (Adrenergic β1): −10%; % Inhibition, Nicotinic Acetylcholine a1, Bungarotoxin ([4]; human, 10 μM compound, Hit Profile Panel): 0%; % Inhibition, Prostanoid EP4 (Prostanoid EP4): 18%
O=C(Nc1nnc(-c2ccc(F)cc2)o1)c1ccc(OC2CCCCC2)cc1 [compound 4292] | 0 | 23 | 1 | −4 | −8 | 2 | −1 | 0 | 8 | 17 | 0 | 11 | -8 | 8 | 3 | 9 | 3 | -4 | 28 | –
O=C(Nc1nnc(-c2ccc(F)cc2)o1)N1CC=C(C(F)(F)F)CC1 [compound 4347] | 5 | 16 | −4 | 4 | −6 | 7 | 22 | 2 | -4 | 5 | 2 | 0 | 22 | 2 | 9 | -21 | 3 | 2 | -4 | –
